Reference: patent publication US8785594B2, “Glycoproteins and glycosylated cells and a method for the preparation of the same” (Glycom A/S, priority 2007, dated 2014)

System: human breast cancer-cell line
Assay: Flow cytometry with fluorescent labeled-lectin of modified cells (Examples 8-10)
Format: cell-based
Details: 25 mg, PBS, 3 h at 37° C.
Protocol: α-Gal epitope-cyclic carbamate 6 (disaccharide) (25 mg) and human breast cancer-cell line 7 (2×10^6 number cell) were mixed in PBS buffer (5 mL) (see FIG. 3). The mixture was kept for 3 h at 37° C., and then the mixture was subjected to centrifugation to separate the cells from the medium.
α-Gal epitope-carbamate 6 (disaccharide) (25 mg) and human breast cancer-cell line 7 (1×10^6 number cell) were mixed in PBS buffer (5 mL) (see FIG. 3). The mixture was kept for 3 h at 37° C., and then the mixture was subjected to centrifugation to separate the cells from the medium.
α-Gal epitope-carbamate 6 (disaccharide) (25 mg) and human breast cancer-cell line 7 (5×10^5 number cell) were mixed in PBS buffer (5 mL) (see FIG. 3). The mixture was kept for 3 h at 37° C., and then the mixture was subjected to centrifugation to separate the cells from the medium.

Measured: Modification of cells shown with fluorescent labeled-lectin

O=C1NC2OC(CO)C(O)C(OC3OC(CO)C(O)C(O)C3O)C2O1 (stereo not drawn) [Compound 6, α-Gal epitope-cyclic carbamate]
modification has been proven: 1×10^6 cells | 2×10^6 cells | 5×10^5 cells
